This note sets out measurements from patent US9464064B2, “HCV helicase inhibitors and methods of use thereof” (University of Kansas, priority 2011, dated 2016).

In assay [1] the test system is HCV RLuc subgenomic replicon (genotype 1b) in Huh-7.5 cells. Put plainly: HCV subgenomic replicon assay (Renilla luciferase). The conditions noted are these: for inhibition at 10 µM: Hepatitis C virus. The class given is cell-based, hepatitis C virus. The text has this: An HCV Renilla luciferase reporter construct (HCV RLuc; Huang, et al. (2006) Hepatology 43:81-90) was used to measure the effect of each compound on cellular HCV RNA levels. In HCV RLuc, the HCV internal ribosome entry site (IRES) drives the translation of the neomycin and Renilla luciferase genes while the HCV nonstructural proteins (NS3 to NS5B) are translated from the Encephalomyocarditis virus IRES (Huang, et al. (2006) supra). The plasmid DNA was cleaved with ScaI, purified by phenol/chloroform extraction followed by ethanol precipitation, and used as template for RNA transcription using […] T7 RNA transcription kit (Ambion, Austin, Tex.). The RNA transcripts were treated with 2 U DNase I (Ambion) at 37° C. for 30 minutes, purified by acid phenol/chloroform extraction, followed by isopropanol precipitation, and suspended in diethylpyrocarbonate-treated water. RNA concentration was determined by spectrophotometry by measuring the A260. RNA integrity and size was checked on 1% agarose gel. Transcribed RNA was stored in aliquots at −80° C. until needed.
Huh-7.5 cells were transfected with HCV RNA by electroporation. Briefly, subconfluent Huh7.5 cells were trypsinized, suspended in complete growth medium, and centrifuged at 1,000×g for 5 minutes at 4° C. The cell pellets were then washed twice with ice-cold phosphate-buffered saline (PBS) and suspended at 1.75×10^7 cells/mL in ice-cold PBS. Replicon RNA (5 μg) was mixed with 0.4 mL of cell suspension and transferred to 2 mm gap width electroporation cuvette (EPPENDORF AG, Germany) and pulsed 5 times for 99 μsec at 820 V over 1.1 sec intervals using the ECM 830 electroporator instrument (BTX Harvard Apparatus, Holliston, Mass.). After a 5 minute recovery period at room temperature, cells were transferred to 10 ml complete growth medium, and seeded into 10 cm diameter cell culture dishes. Twenty-four hours after transfection, the medium was replaced with fresh complete DMEM supplemented with 1 mg/ml geneticin (Invitrogen) and the medium was replaced every three to four days with fresh medium containing 1 mg/mL geneticin. Geneticin-resistant colonies were selected for a period of two weeks and expanded in the presence of 250 μg/mL geneticin.
HCV RLuc replicon cells were seeded at a density of 10×10^3 cells per well in 96-well plates and incubated for 4-5 hours to allow the cells to attach to the plate. The compounds dissolved in dimethyl sulfoxide (DMSO) were added at a final concentration of 10 μM (DMSO solvent final concentration was 0.5%) and the cells were incubated for 72 hours at 37° C. under 5% CO2 atmosphere. The effects of compounds on HCV replication were then assessed by measuring the Renilla luciferase activity in compound-treated versus DMSO-treated cells. At the end of the incubation period, the medium was aspirated and the cells were washed with 1×PBS. The Renilla luciferase reporter gene assay was performed using the Renilla luciferase assay kit (PROMEGA, Madison, Wis.) according to the manufacturer's instructions. Briefly, the cells were lysed by addition of 50 μL of 1× Renilla luciferase lysis buffer followed by two cycles of freeze/thaw. The luciferase activity content of the lysate was measured with a FLUOSTAR Omega microplate reader instrument (BMG Labtech, Germany) after injecting 50 μL of luciferase substrate and reading for 5 seconds.
To determine if the above identified compounds might be useful as HCV antiviral agents, they were added to cells harboring HCV subgenomic RNA replicon. The HCV replicon chosen was derived from the same HCV strain (genotype 1b) as the NS3 protein used for screening and enzyme assays. […] 75:4614-4624; Blight, et al. (2002) J. Virol. 76:13001-13014). […]

The target of assay [2] is T1, NS3h_2a(JFH1) (Hepatitis C virus genotype 2a, UniProt Q99IB8).
T1 construct: truncated C-terminally His-tagged NS3 proteins lacking the N-terminal protease, called NS3h; His-tag (C); made in house
T1 sequence (Q99IB8 1196-1661): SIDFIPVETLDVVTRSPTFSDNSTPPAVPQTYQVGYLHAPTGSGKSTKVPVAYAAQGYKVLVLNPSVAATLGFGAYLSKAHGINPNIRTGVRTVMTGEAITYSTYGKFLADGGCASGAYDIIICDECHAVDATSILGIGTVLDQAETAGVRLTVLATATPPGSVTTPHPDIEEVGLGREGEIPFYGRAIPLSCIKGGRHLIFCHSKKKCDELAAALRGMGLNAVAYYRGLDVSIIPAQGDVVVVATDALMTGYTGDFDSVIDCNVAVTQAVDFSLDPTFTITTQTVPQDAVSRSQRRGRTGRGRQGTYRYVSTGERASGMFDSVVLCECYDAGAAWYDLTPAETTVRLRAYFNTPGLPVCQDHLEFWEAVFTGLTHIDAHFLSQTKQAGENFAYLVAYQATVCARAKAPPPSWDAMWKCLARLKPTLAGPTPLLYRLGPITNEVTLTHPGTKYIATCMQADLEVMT
Put plainly: MBHA, DNA substrate, genotype 2a helicase. Format: biochemical, hepatitis C virus genotype 2a(JFH1). How it is done: All oligonucleotides were purchased from Integrated DNA Technologies (IDT, Coralville, Iowa). Primuline derivatives were synthesized and purified as described herein. Three different NS3 proteins were used in this study. Two were truncated C-terminally His-tagged NS3 proteins lacking the N-terminal protease, called NS3h, the third was a full-length NS3 with the portion of NS4A needed for protease activation fused to its N-terminus, called scNS4A-NS3 (Howe, et al. (1999) Protein Sci. 8:1332-41), and the fourth was a 23 kDa scNS4A-NS3 protease fragment lacking the helicase domains, called scNS4A-NS3p (Protein One, Rockville, Md.). NS3h was expressed from two different HCV strains. NS3h_1b(con1) was from the con1 strain of genotype 1b (GENBANK accession AB114136), and NS3h_2a(JFH1) was from the JFH1 strain of HCV genotype 2a (GENBANK accession AJ238799). […] His-tagged recombinant NS3h_1b(con1), NS3h_2a(JFH1), and scNS4A-NS3 (also from genotype 1b(con1)) were expressed, and purified as previously described (Frick, et al. (2010) supra; Lam, et al. (2003) J. Virol. 77:3950-3961). The scNS4A-NS3p (genotype 1b) was from Protein One. A plasmid expressing NS3h from dengue virus strain 2 (NS3h_DV2)(GENBANK accession 2BMF) is known in the art (Xu, et al. (2005) J. Virol. 79:10278-10288), and used to express and purify NS3h_DV2 (Belon, et al. (2010) supra)
Compounds that specifically target less conserved regions of a HCV protein are often not potent inhibitors of the same protein derived from other genotypes, and they might be susceptible to rapid evolution of related viruses. As described herein, primuline derivatives can inhibit HCV helicase isolated from the genotype 1b(con1) strain. Therefore to further analyze specificity, the subset of primuline analogs was tested on the helicase isolated from the genotype 2a(JFH1) strain. The two recombinant proteins differ at 83 of their 480 amino acids. The JHF1 strain is also of interest because it serves as the backbone for HCV strains capable of replicating in cell culture (Wakita, et al. (2005) Nat. Med. 11:791-796). The molecular beacon-based helicase assay (MBHA) (Belon & Frick (2008) supra) was used to measure the ability of each compound to inhibit DNA unwinding catalyzed by NS3h isolated from genotype 2a(JFH1) (NS3h_2a(JFH1)). […] Selected compounds were also tested for the ability to inhibit helicase reactions catalyzed by full-length NS3 and a single chain NS4A-NS3 protein (scNS4A-NS3) described below and used for protease assays.

Setting [3] is: Huh7.5, 10 μM, read-out: Replicon (% Inhibition @ 10 μM).
Setting [4] is: genotype 2a (JFH1), read-out: Target Potency MBHA (IC50 avg., μM) 2a (JFH1) (converted).
[5] abbreviates: Huh7.5, 10 μM compound, triplicate, average ± SD, read-out: HCV replication (% Inh.).
Setting [6] is: DNA-based MBHA, genotype 2a(JFH1), read-out: DNA Helicase NS3h_2a IC50 (μM) ± SD.
Where [7] appears, read: Huh7.5, read-out: HCV replication (% Inh.).
[8] abbreviates: Huh7.5, read-out: Replicon (% Inhibition @ 10 μM).
Where [9] appears, read: Target Potency MBHA (IC50 avg., μM) 2a (JFH1), genotype 2a (JFH1).

Read-outs that look alike come from different tables or passages of the source.

For `Cc1ccc2nc(-c3ccc4nc(-c5ccc(NC(=O)c6ccc7ncoc7c6)cc5)sc4c3)sc2c1S(=O)(=O)O`, the inhibition at 10 µM in assay [1] (setting [3]) was found to be 15 ± 11%. Moreover, the IC50 in assay [2] (setting [4]) was 6.4 µM.

Turning to `Cc1ccc2nc(-c3ccc4nc(-c5ccc(NS(=O)(=O)c6ccc(C(F)(F)F)cc6)cc5)sc4c3)sc2c1S(=O)(=O)O`, the inhibition at 10 µM in assay [1] (setting [3]) was -7 ± 14%. Besides, the IC50 in assay [2] (setting [4]) is 35 µM.

Consider `Cc1ccc2nc(-c3ccc(NC(=O)c4ccc(C(F)(F)F)cc4)cc3)sc2c1S(=O)(=O)O`, for which, in assay [1] (setting [3]), the inhibition at 10 µM worked out at 11 ± 14%. In addition, the 50% inhibitory concentration (IC50) in assay [2] (setting [4]) is above 100 µM.

As to `Cc1ccc2nc(-c3ccc(NC(=O)c4ccc(N)cc4)cc3)sc2c1S(=O)(=O)O`, the inhibition at 10 µM in assay [1] (setting [3]) amounted to 21 ± 29%. Besides, the half-inhibitory concentration (IC50) in assay [2] (setting [4]) was 64 µM.

Take `Cc1ccc2nc(-c3ccc(NC(=O)c4ccc(NS(=O)(=O)c5ccccc5)cc4)cc3)sc2c1S(=O)(=O)O`: the inhibition at 10 µM in assay [1] (setting [3]) was -73 ± 50%. The IC50 in assay [2] (setting [4]) is above 100 µM.

`Cc1ccc2nc(-c3ccc(NC(=S)Nc4ccccc4Br)cc3)sc2c1`: the inhibition at 10 µM in assay [1] (setting [3]) is 80 ± 17%. Also, in assay [2] (setting [4]), the 50% inhibitory concentration (IC50) was above 100 µM.

Consider `Cc1ccc2nc(-c3ccc4nc(NC(=O)c5ccc6ncoc6c5)sc4c3)sc2c1`, for which the inhibition at 10 µM in assay [1] (setting [3]) is 90 ± 35%. Besides, the concentration for half-maximal inhibition (IC50) in assay [2] (setting [4]) was 75 ± 32.6 µM.

`Cc1ccc2nc(-c3ccc4nc(-c5ccc(NC(=O)c6ccccc6)cc5)sc4c3)sc2c1S(=O)(=O)O` [Compound 5, 2′-(4-benzamidophenyl)-6-methyl-[2,6′-bibenzo[d]thiazole]-7-sulfonic acid]: the inhibition at 10 µM in assay [1] (setting [5]) and in assay [1] (setting [3]) was 45 ± 5% throughout. For the same molecule, the half-inhibitory concentration (IC50) in assay [2] (setting [4]) is 4.6 ± 1.4 µM.

For the molecule `Cc1ccc2nc(-c3ccc4nc(-c5ccc(NC(=O)c6ccc(N)cc6)cc5)sc4c3)sc2c1S(=O)(=O)O` [Compound 6, 2′-(4-(4-aminobenzamido)phenyl)-6-methyl-[2,6′-bibenzo[d]thiazole]-7-sulfonic acid], the inhibition at 10 µM in assay [1] (setting [5]) and in assay [1] (setting [3]) was 33 ± 1% in each case. The IC50 was 5 ± 2.5 µM in assay [2] (setting [6]) and 5.3 ± 2.5 µM in assay [2] (setting [4]).

For the molecule `Cc1ccc2nc(-c3ccc4nc(-c5ccc(NC(=O)c6ccc(F)cc6)cc5)sc4c3)sc2c1S(=O)(=O)O.N` [Compound 7, 2′-(4-(4-fluorobenzamido)phenyl)-6-methyl-[2, bibenzo[d]thiazole]-7-sulfonic acid], the inhibition at 10 µM in assay [1] (setting [5]) and in assay [1] (setting [3]) was 50 ± 5% in each case. Also, the IC50 in assay [2] (setting [6]) and in assay [2] (setting [4]) was 3 ± 0.8 µM throughout.

`COc1ccc(C(=O)Nc2ccc(-c3nc4ccc(-c5nc6ccc(C)c(S(=O)(=O)O)c6s5)cc4s3)cc2)cc1` [Compound 8, 2′-(4-(4-methoxybenzamido)phenyl)-6-methyl-[2,6′-bibenzo[d]thiazole]-7-sulfonic acid]: the inhibition at 10 µM in assay [1] (setting [7]) and in assay [1] (setting [8]) was 64 ± 4% each time. In assay [2] (setting [9]), this molecule gave an IC50 of 5.4 ± 1.4 µM.

As to `COC(=O)c1ccc(C(=O)Nc2ccc(-c3nc4ccc(-c5nc6ccc(C)c(S(=O)(=O)O)c6s5)cc4s3)cc2)cc1` [Compound 9, 2′-(4-(4-(methoxycarbonyl)benzamido)phenyl)-6-methyl-[2,6′-bibenzo[d]thiazole]-7-sulfonic acid], the inhibition at 10 µM in assay [1] (setting [5]) and in assay [1] (setting [3]) was 40 ± 1% in each case. Also, the IC50 in assay [2] (setting [4]) was 2.4 ± 0.6 µM.

With `Cc1ccc2nc(-c3ccc4nc(-c5ccc(NC(=O)c6ccc(Cl)cc6)cc5)sc4c3)sc2c1S(=O)(=O)O` [Compound 10, 2′-(4-(4-chlorobenzamido)phenyl)-6-methyl-[2,6′-bibenzo[d]thiazole]-7-sulfonic acid], the inhibition at 10 µM in assay [1] (setting [7]) and in assay [1] (setting [8]) was 42 ± 9% in each case. The molecule also gave an IC50 in assay [2] (setting [9]) of 2.3 ± 0.5 µM.

Take `Cc1ccc(C(=O)Nc2ccc(-c3nc4ccc(-c5nc6ccc(C)c(S(=O)(=O)O)c6s5)cc4s3)cc2)cc1` [Compound 11, 6-methyl-2′-(4-(4-methylbenzamido)phenyl)-[2,6′-bibenzo[d]thiazole]-7-sulfonic acid]: the inhibition at 10 µM in assay [1] (setting [5]) and in assay [1] (setting [3]) was 52 ± 12% in each case. The half-inhibitory concentration (IC50) in assay [2] (setting [4]) was 2.5 ± 0.5 µM.

Regarding `Cc1ccc2nc(-c3ccc4nc(-c5ccc(NC(=O)c6ccc(C(F)(F)F)cc6)cc5)sc4c3)sc2c1S(=O)(=O)O` [Compound 12, 6-methyl-2′-(4-(4-(trifluoromethyl)benzamido)phenyl)-[2,6′-bibenzo[d]thiazole]-7-sulfonic acid], the inhibition at 10 µM in assay [1] (setting [5]) and in assay [1] (setting [3]) was 44 ± 12% throughout. In addition, the IC50 in assay [2] (setting [6]) was 2 ± 1 µM; in assay [2] (setting [4]), 2.5 ± 1 µM.

With `Cc1ccc2nc(-c3ccc4nc(-c5ccc(N)cc5)sc4c3)sc2c1S(=O)(=O)O` [Compound P2a, 2′-(4-aminophenyl)-6-methyl-[2,6′-bibenzo[d]thiazole]-7-sulfonic acid], in assay [2] (setting [6]), the IC50 stood at 58 ± 51 µM.

As for `Cc1ccc2nc(-c3ccc4nc(-c5ccc6nc(-c7ccc(N)cc7)sc6c5)sc4c3)sc2c1S(=O)(=O)O` [Compound P3, 2″-(4-aminophenyl)-6-methyl-[2,6′:2′,6″-terbenzo[d]thiazole]-7-sulfonic acid], the “ability to decrease the amount of HCV RNA present in the cultures” value in assay [1] (10 μM) was “showed any ability to decrease the amount of HCV RNA present in the cultures”.
